The values that follow come from patent US4407796A, “Modulators of the complement system” (American Cyanamid Company, priority 1981, dated 1983).

For one assay, the target named is activated human C1 (Homo sapiens, UniProt P09871). Put plainly: Test Code 026 (C1 inhibitor). It is filed as biochemical. To be noted: serial twofold dilution assay; higher well number indicates higher activity. The procedure:
(§1) An active inhibitor protects C2 from C1 and C4; (ii) Test Code 035 (C3-C9 inhibitor)--This test determines the ability of the late components of human complement (C3-C9) to lyse EAC 142 in the presence of appropriate dilutions of the test compound. An active inhibitor protects EAC 142 from lysis by human C3-C9; (iii) Cap 50 Test--Here, appropriate amounts of the test compound are added to a pool of guinea pig or human serum in vitro, after which the undiluted serum capillary tube assay of U.S. Pat. No. 3,876,376 is run. The concentration of compound inhibiting 50% is reported; and (iv) Guinea Pig Intraperitoneal Test (GPIP)--Guinea pigs weighing about 300 g are dosed intraperitoneally (i.p.) with 200 mg/kg of the test compound dissolved in saline and adjusted to pH 7-8. Approximately 0.4 ml blood samples, taken by orbital sinus puncture 2 hours and 6 hours after injections, are collected directly into centrifuge tubes; 5 ml blood samples, taken by decapitation 24 hours after injection, are collected directly into beakers. The samples are allowed to clot, centrifuged, and the resultant sera are assayed for complement activity using the capillary complement assay. Percent inhibition is calculated by comparison with simultaneous controls. The results of the GPIP appear in Table I together with results of Test Code 026, 035 and Cap 50.

Assay [1] has as its system late components of human complement (C3-C9). Put plainly: Test Code 035 (C3-C9 inhibitor), lysis of EAC 142. The format is biochemical. To be noted: serial twofold dilution assay; higher well number indicates higher activity. The procedure: as §1
The next assay has as its system human serum complement. The settings on record: both in vitro and in vivo; cited from earlier work.

Where a name gives a salt, the structure may show the parent alone.

Turning to `O=S(=O)(O)OC[C@H]1O[C@@H](Sc2cccc(S[C@@H]3O[C@H](COS(=O)(=O)O)[C@@H](O[C@H]4O[C@H](COS(=O)(=O)O)[C@@H](OS(=O)(=O)O)[C@H](OS(=O)(=O)O)[C@H]4OS(=O)(=O)O)[C@H](OS(=O)(=O)O)[C@H]3OS(=O)(=O)O)c2)[C@H](OS(=O)(=O)O)[C@@H](OS(=O)(=O)O)[C@@H]1O[C@H]1O[C@H](COS(=O)(=O)O)[C@@H](OS(=O)(=O)O)[C@H](OS(=O)(=O)O)[C@H]1OS(=O)(=O)O` [1,3-Bis-[4-O-α-D-glucopyranosyl-β-D-glucopyranosyl-1-thio]-phenylene, tetradecakis(H-sulfate),tetradecasodium salt], at activated human C1, the “C1 026 Wells” value came to 12 Wells. The “C-Late 035 Wells” value in assay [1] was 0.9 Wells.

With pentosanpolysulfoester, the “anticomplementary activity, judged by reduction in total hemolytic complement activity” value in the assay on human serum complement was “anticomplementary activity”.

As for `O=S(=O)(O)OC[C@H]1O[C@@H](Sc2ccc(-c3ccc(S[C@@H]4O[C@H](COS(=O)(=O)O)[C@@H](O[C@H]5O[C@H](COS(=O)(=O)O)[C@@H](OS(=O)(=O)O)[C@H](OS(=O)(=O)O)[C@H]5OS(=O)(=O)O)[C@H](OS(=O)(=O)O)[C@H]4OS(=O)(=O)O)cc3)cc2)[C@H](OS(=O)(=O)O)[C@@H](OS(=O)(=O)O)[C@@H]1O[C@H]1O[C@H](COS(=O)(=O)O)[C@@H](OS(=O)(=O)O)[C@H](OS(=O)(=O)O)[C@H]1OS(=O)(=O)O` [4,4'-Bis-[4-O-α-D-glucopyranosyl-β-D-glucopyranosyl-1-thio]-1,1'-biphenylene, tetradecakis(H-sulfate), tetradecasodium salt], the “C1 026 Wells” value on activated human C1 is reported as 13 Wells. Moreover, the “C-Late 035 Wells” value in assay [1] was 2 Wells.
